Among the test systems are MALME-3M melanoma; SN12C renal; COLO 205 colon; SF-539 CNS; OVCAR-3 ovarian; UACC-62 melanoma; NCI-H23 lung; A498 renal; UACC-257 melanoma.
Assay in all cases: NCI-60 cell line screen, 48 h

Experimental findings from PubChem BioAssay (NCI) are described below.

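Where inhibition never reached the appropriate level, the endpoint shown equals the highest concentration tested. Otherwise, values were interpolated linearly from a five-concentration, 48-hour dose response in 96-well plates. Abbreviation: GI50, concentration required for 50% inhibition of growth. At the TGI there is no net growth.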

Take `O=C(Cc1ccccc1)Oc1ccc2c(-c3ccccc3)c(C(=O)Nc3ccc(Cl)cc3)c(=O)oc2c1`: the TGI with MALME-3M melanoma, in the assay with SN12C renal, with COLO 205 colon, in the assay on SF-539 CNS, in the assay with OVCAR-3 ovarian and in the assay on UACC-62 melanoma was > 100 µM in each case. Also, the TGI in the assay with NCI-H23 lung, in the assay on A498 renal and with UACC-257 melanoma was > 100 µM each time.

Regarding `Cc1cccc(C)c1NC(=O)CCC(=O)NNC(=O)c1cc(O)c2ccccc2c1`, the TGI is > 100 µM in the assay with MALME-3M melanoma; > 100 µM in the assay on SN12C renal; 49 µM in the assay on COLO 205 colon; 78.2 µM in the assay with SF-539 CNS; > 100 µM with OVCAR-3 ovarian; 71.3 µM in the assay with UACC-62 melanoma. In addition, the TGI in the assay with NCI-H23 lung was 88 µM; with A498 renal, 3.78 µM; with UACC-257 melanoma, > 100 µM.

In the case of `COC(=O)c1cnc2nc(N3CCOCC3)[nH]n2c1=O`, the TGI in the assay with MALME-3M melanoma, in the assay on SN12C renal, with COLO 205 colon, in the assay with SF-539 CNS, in the assay with OVCAR-3 ovarian and in the assay with UACC-62 melanoma was > 100 µM in each case. Besides, the TGI in the assay on NCI-H23 lung, in the assay with A498 renal and with UACC-257 melanoma was > 100 µM in each case.

In the case of `COc1nc(OC)c2c(=O)oc(-c3ccccc3)cc2n1`, the TGI with MALME-3M melanoma, with SN12C renal, in the assay on SF-539 CNS, in the assay on UACC-62 melanoma, with NCI-H23 lung and in the assay with UACC-257 melanoma was > 100 µM each time.

In the case of `COc1ccc(-c2cc(C(=O)Nc3cccc(C(F)(F)F)c3)[nH]c(=S)n2)cc1`, the TGI in the assay on MALME-3M melanoma, in the assay on SN12C renal, in the assay on COLO 205 colon, with SF-539 CNS, in the assay on OVCAR-3 ovarian and in the assay with UACC-62 melanoma was > 100 µM in each case. Further, the TGI in the assay with NCI-H23 lung, in the assay on A498 renal and in the assay with UACC-257 melanoma was > 100 µM each time.

As to `O=C(NC1CCCCC1)c1c(O)[nH]c(=S)[nH]c1=O`, the TGI with MALME-3M melanoma, with SN12C renal, in the assay on COLO 205 colon, with SF-539 CNS, in the assay with OVCAR-3 ovarian and in the assay with UACC-62 melanoma was > 100 µM each time. Also, the TGI in the assay with NCI-H23 lung, in the assay on A498 renal and in the assay on UACC-257 melanoma was > 100 µM throughout.

For `N#C/C(=C\c1ccc(CP(=O)(O)O)cc1)C(N)=O`, the TGI in the assay with MALME-3M melanoma, in the assay with SN12C renal, with COLO 205 colon, with SF-539 CNS, in the assay on OVCAR-3 ovarian and in the assay with UACC-62 melanoma was > 100 µM each time. In addition, the TGI in the assay on NCI-H23 lung, in the assay with A498 renal and in the assay with UACC-257 melanoma was > 100 µM in each case.

Take `CCOC(C)OCC#CCCBr` (stereo not drawn): the TGI in the assay with MALME-3M melanoma, in the assay with SN12C renal, in the assay with COLO 205 colon, in the assay with SF-539 CNS, in the assay with OVCAR-3 ovarian and with UACC-62 melanoma was > 100 µM in each case. The TGI in the assay with NCI-H23 lung and in the assay with UACC-257 melanoma was > 100 µM in each case.

As for `C=C1C(=O)O[C@H]2[C@H]1CC/C(COC(=O)OCCCCCOC(=O)OC/C1=C/CC[C@@]3(C)O[C@H]3[C@H]3OC(=O)C(=C)[C@@H]3CC1)=C\CC[C@@]1(C)O[C@@H]21`, the GI50 with MALME-3M melanoma is 0.285 µM; with COLO 205 colon, 0.199 µM; in the assay on SF-539 CNS, 0.61 µM; in the assay on OVCAR-3 ovarian, 0.273 µM; in the assay with UACC-62 melanoma, 1.28 µM; in the assay with NCI-H23 lung, 0.674 µM. The results for the GI50 in the assay with A498 renal and in the assay on UACC-257 melanoma were 1.5 µM and 0.661 µM, respectively. Moreover, the TGI in the assay with MALME-3M melanoma worked out at 0.878 µM; in the assay with COLO 205 colon, 0.438 µM; in the assay on SF-539 CNS it was 2.04 µM; with OVCAR-3 ovarian it was 0.823 µM; with UACC-62 melanoma it was 3.05 µM; in the assay on NCI-H23 lung it was 2.37 µM. The TGI was determined as 3.21 µM in the assay on A498 renal and 2.31 µM with UACC-257 melanoma.

Consider `O=C1CCC2(c3ccc(F)cc3)Nc3ccccc3N12` (stereo not drawn), for which the TGI with MALME-3M melanoma, in the assay on SN12C renal, in the assay with COLO 205 colon, with SF-539 CNS, in the assay on OVCAR-3 ovarian and in the assay on UACC-62 melanoma was > 100 µM throughout. In addition, the TGI with NCI-H23 lung, in the assay with A498 renal and with UACC-257 melanoma was > 100 µM in each case.

As to `CS(=O)(=O)C1S(=O)(=O)OCCOS1(=O)=O`, the TGI in the assay with MALME-3M melanoma, in the assay with SN12C renal, with COLO 205 colon, in the assay on SF-539 CNS, with OVCAR-3 ovarian and in the assay on UACC-62 melanoma was > 100 µM in each case. Moreover, the TGI in the assay on NCI-H23 lung, in the assay with A498 renal and in the assay on UACC-257 melanoma was > 100 µM in each case.

For the compound `C=C1C(=O)O[C@@H]2C[C@]3(C)[C@@H](C[C@H]12)[C@](C)(O)CC[C@@H]3O`, the TGI with MALME-3M melanoma, with SN12C renal, in the assay on COLO 205 colon, in the assay with SF-539 CNS, in the assay with OVCAR-3 ovarian and in the assay with UACC-62 melanoma was > 100 µM throughout. In addition, in the assay with NCI-H23 lung, the TGI is > 100 µM.

With `O=[N+]([O-])c1ccccc1S(=O)c1ccccc1` (stereo not drawn), the TGI in the assay on MALME-3M melanoma, with SN12C renal, with SF-539 CNS, in the assay with OVCAR-3 ovarian, with UACC-62 melanoma and in the assay with NCI-H23 lung was > 100 µM in each case. In addition, the TGI in the assay with A498 renal and in the assay with UACC-257 melanoma was > 100 µM each time.

In the case of `O=CC1=CCCC2(C1)OCCO2`, the TGI with MALME-3M melanoma, in the assay on SN12C renal, in the assay with COLO 205 colon, with SF-539 CNS, with OVCAR-3 ovarian and in the assay on UACC-62 melanoma was > 100 µM in each case. For the same compound, the TGI in the assay with NCI-H23 lung, with A498 renal and with UACC-257 melanoma was > 100 µM in each case.

For the compound `CC(=O)O[C@]1(C(C)=O)CC[C@H]2[C@@H]3C[C@H](C)C4=CC(=O)C=C[C@]4(C)[C@@]3(F)[C@@H](O)C[C@@]21C`, the TGI with MALME-3M melanoma, in the assay on COLO 205 colon, with SF-539 CNS, with OVCAR-3 ovarian, in the assay on UACC-62 melanoma and in the assay with NCI-H23 lung was > 100 µM each time. The TGI with UACC-257 melanoma was > 100 µM.
